Assay results taken from patent US9145414B2, “1,2,4-triazine-6-carboxamide derivative” (TAIHO PHARMACEUTICAL CO., LTD., priority 2011, dated 2015).
Read-outs that look alike come from different tables or passages of the source.

Legend:
[1] = tested on: SU-DHL-6 cells (diffuse large-cell lymphoma cell line); assay: Cell growth inhibition test; format: cell-based; conditions: read-out: Cell growth inhibition IC50
Protocol: The compound of the present invention was serially diluted with dimethyl sulfoxide and then added to an RPMI1640 medium containing 10% FBS. Each resulting solution was added at a concentration of 100 μl/well to the preceding SU-DHL-6 cell culture plate (final concentration of the compound: 10, 3, 1, 0.3, 0.1, 0.03, 0.01, and 0.003 μM). The cells were cultured at 37° C. for 3 days in an incubator containing 5% CO2. The cells thus cultured were left at room temperature for 30 minutes and then centrifuged at 1500 rpm for 3 minutes using a centrifuge (Hitachi Koki Co., Ltd., Himac CF7D2). A 100 μl aliquot of the supernatant was removed from each well to allow 100 μl of the cell culture solution to remain therein. This 100 μl of the remaining cell culture solution was supplemented with an equal amount of CellTiter-Glo Luminescent Cell Viability Assay (Promega KK, Cat#: G7573), and the mixture was then shaken for 1 minute using a plate mixer. The reaction solution was left in the dark for 10 minutes. Then, luminescence intensity derived from live cells of each well was measured using a microplate reader (PerkinElmer Inc., ARVOsx). […] Likewise, the IC50 values (μM) of the control compounds were also calculated and then compared with that of the compound of the present invention. Rate of cell growth inhibition(%)=(C−T)/C×100 T: luminescence intensity (count per second) of a well supplemented with the test compound C: luminescence intensity (count per second) of a well non-supplemented with the test compound

[2] = target: human Syk protein (Homo sapiens (Human), UniProt P43405); assay: Syk kinase inhibition test; format: biochemical; conditions: Table 95; read-out: SYK inhibitory activity IC50
Protocol: Finally, phosphorylated peptides and non-phosphorylated peptides were separated therebetween using LabChip™ 3000 system (Caliper Life Sciences, Inc., excitation wavelength: 488 nm, detection wavelength: 530 nm). Their respective amounts were measured, and the rate of phosphorylation reaction was then determined from the ratio between the amounts. The concentration at which the compound can inhibit 50% phosphorylation reaction is defined as an IC50 value (μM).
Also, known 1,2,4-triazine-6-carboxamide derivatives A, B, and C (WO2000/075113 (A: compound No. 121 and B: compound No. 154) and WO2000/076980 (C: compound No. 39)) were synthesized as control compounds. Their IC50 values (μM) were calculated in the same way as above and then compared with that of the compound of the present invention.

[3] = Homo sapiens, 72 h, SU-DHL-6 cells, 3 days culture, Table 96
[4] = SU-DHL-6 cells, 3 days culture, Table 96

Structure (SMILES): COC[C@H](N)[C@@H](C)Nc1nnc(C(N)=O)c(Nc2cc(C)cc3c2ccn3C)n1 [Example 256, 3-(((2R,3R)-3-amino-4-methoxybutan-2-yl)amino)-5-((1,6-dimethyl-1H-indol-4-yl)amino)-1,2,4-triazine-6-carboxamide]
- IC50 [1, 3]: 157 nM
- IC50 [2]: 0.35 nM

Structure (SMILES): CC[C@H](N)CNc1nnc(C(N)=O)c(Nc2cccc3sccc23)n1 [Example 245]
- IC50 [1, 3]: 158 nM
- IC50 [2]: 0.35 nM

Structure (SMILES): NC(=O)c1nnc(N[C@@H]2CCOC[C@@H]2N)nc1Nc1cccc2c1ccn2C1CCC1 [Example 277]
- IC50 [1, 3]: 181 nM
- IC50 [2]: 0.41 nM

Structure (SMILES): Cc1cc(Nc2nc(N[C@@H]3CCCC[C@@H]3N)nnc2C(N)=O)cc2nn(C)cc12 [Example 91, 3-(((1R,2S)-2-aminocyclohexyl)amino)-5-((2,4-dimethyl-2H-indazol-6-yl)amino)-1,2,4-triazine-6-carboxamide diformate]
- IC50 [1, 3]: 138 nM
- IC50 [2]: 0.26 nM

Structure (SMILES): NC(=O)c1nnc(N[C@@H]2CCOC[C@@H]2N)nc1Nc1ccc2cnn(C(F)F)c2c1 [Example 170]
- IC50 [1, 3]: 178 nM
- IC50 [2]: 0.58 nM

Structure (SMILES): NC(=O)c1nnc(N[C@@H]2CCCC[C@@H]2N)nc1Nc1ccc2cnn(C(F)F)c2c1 [Example 165]
- IC50 [1, 3]: 177 nM
- IC50 [2]: 0.36 nM

Structure (SMILES): NC(=O)c1nnc(N[C@@H]2CCCC[C@@H]2N)nc1Nc1cccc2c1ccn2[C@H]1CC[C@H](O)CC1 [Example 73, 3-(((1R,2S)-2-aminocyclohexyl)amino)-5-((1-(trans-4-hydroxycyclohexyl)-1H-indol-4-yl)amino)-1,2,4-triazine-6-carboxamide]
- IC50 [1, 3]: 53 nM
- IC50 [2]: 0.37 nM

Structure (SMILES): NC(=O)c1nnc(N[C@@H]2CCCC[C@@H]2N)nc1Nc1cccc2c1ccn2CCF [Example 35, 3-((1R,2S)-2-aminocyclohexylamino)-5-(1-(2-fluoroethyl)-1H-indol-4-ylamino)-1,2,4-triazine-6-carboxamide]
- IC50 [1, 3]: 107 nM
- IC50 [2]: 0.51 nM

Structure (SMILES): COC[C@H](N)[C@@H](C)Nc1nnc(C(N)=O)c(Nc2cc(C)c3nn(C(C)(C)C)cc3c2)n1 [Example 274]
- IC50 [1, 3]: 155 nM
- IC50 [2]: 0.95 nM

Structure (SMILES): CCn1ncc2c(C)cc(Nc3nc(N[C@@H]4CCCC[C@@H]4N)nnc3C(N)=O)cc21 [Example 97, 3-(((1R,2S)-2-aminocyclohexyl)amino)-5-((1-ethyl-4-methyl-1H-indazol-6-yl)amino)-1,2,4-triazine-6-carboxamide]
- IC50 [1, 3]: 191 nM
- IC50 [2]: 0.39 nM

Structure (SMILES): NC(=O)c1nnc(N[C@@H]2CCCC[C@@H]2N)nc1Nc1ccc2sccc2c1 [Example 220]
- IC50 [1, 3]: 180 nM
- IC50 [2]: 0.26 nM

Structure (SMILES): Cn1cc(-n2ccc3c(Nc4nc(N[C@@H]5CCCC[C@@H]5N)nnc4C(N)=O)cccc32)cn1 [Example 67, 3-(((1R,2S)-2-aminocyclohexyl)amino)-5-((1-(1-methyl-1H-pyrazol-4-yl)-1H-indol-4-yl)amino)-1,2,4-triazine-6-carboxamide]
- IC50 [1, 3]: 49 nM
- IC50 [2]: 0.26 nM

Structure (SMILES): CCn1cc2cc(Nc3nc(N[C@@H]4CCCC[C@@H]4N)nnc3C(N)=O)cc(-n3cccn3)c2n1 [Example 79, 3-(((1R,2S)-2-aminocyclohexyl)amino)-5-((2-ethyl-7-(1H-pyrazol-1-yl)-2H-indazol-5-yl)amino)-1,2,4-triazine-6-carboxamide]
- IC50 [1, 3]: 93 nM
- IC50 [2]: 0.37 nM

Structure (SMILES): Cc1cc(Nc2nc(N[C@@H]3CCOC[C@@H]3N)nnc2C(N)=O)c2ccn(C)c2c1 [Example 267]
- IC50 [1, 3]: 128 nM
- IC50 [2]: 0.41 nM

Structure (SMILES): Cn1ccc2c(Nc3nc(N[C@@H]4CCCC[C@@H]4N)nnc3C(N)=O)cccc21 [Example 3, 3-((1R,2S)-2-aminocyclohexylamino)-5-(1-methyl-H-indol-4-ylamino)-1,2,4-triazine-6-carboxamide]
- IC50 [1, 3]: 91 nM
- IC50 [2]: 0.36 nM

Structure (SMILES): Cc1cc(Nc2nc(N[C@@H]3CCOC[C@@H]3N)nnc2C(N)=O)cc2cn(C(C)(C)C)nc12 [Example 61, 3-(((3R,4R)-3-aminotetrahydro-2H-pyran-4-yl)amino)-5-((2-(tert-butyl)-7-methyl-2H-indazol-5-yl)amino)-1,2,4-triazine-6-carboxamide]
- IC50 [1, 3]: 164 nM
- IC50 [2]: 0.37 nM

Structure (SMILES): NC(=O)c1nnc(N[C@@H]2CCCC[C@@H]2N)nc1Nc1ccc2nn(C(F)F)cc2c1 [Example 57, 3-((1R,2S)-2-aminocyclohexylamino)-5-(2-(difluoromethyl)-2H-indazol-5-ylamino)-1,2,4-triazine-6-carboxamide]
- IC50 [1, 3]: 179 nM
- IC50 [2]: 0.52 nM

Structure (SMILES): COC[C@H](N)[C@@H](C)Nc1nnc(C(N)=O)c(Nc2cc(-c3ccccc3)c3nn(C)cc3c2)n1 [Example 258]
- IC50 [1, 3]: 60 nM
- IC50 [2]: 0.29 nM

Structure (SMILES): NC(=O)c1ccc(NC2CCCCC2N)cc1Nc1ccccc1Br (stereo not drawn) [A, reference compound]
- IC50 [1, 4]: 2000 nM
- IC50 [2]: 33 nM

Structure (SMILES): NC(=O)c1nnc(N[C@@H]2CCCC[C@@H]2N)nc1Nc1cccc2c1ccn2C(F)F [Example 26, 3-((1R,2S)-2-aminocyclohexylamino)-5-(1-(difluoromethyl)-1H-indol-4-ylamino)-1,2,4-triazine-6-carboxamide]
- IC50 [1, 3]: 41 nM
- IC50 [2]: 0.22 nM

Structure (SMILES): NC(=O)c1nnc(N[C@@H]2CCCC[C@@H]2N)nc1Nc1cc(-c2ccccn2)cs1 [Example 77, 3-(((1R,2S)-2-aminocyclohexyl)amino)-5-((4-(pyridin-2-yl)thiophen-2-yl)amino)-1,2,4-triazine-6-carboxamide]
- IC50 [1, 3]: 82 nM
- IC50 [2]: 0.42 nM

Structure (SMILES): NC(=O)c1nnc(N[C@@H]2CCCC[C@@H]2N)nc1Nc1csc2ccccc12 [Example 212]
- IC50 [1, 3]: 128 nM
- IC50 [2]: 0.29 nM

Structure (SMILES): Cn1cc2cc(Nc3nc(N[C@@H]4CCOC[C@@H]4N)nnc3C(N)=O)cc(-c3ccccc3)c2n1 [Example 257, 3-(((3R,4R)-3-aminotetrahydro-2H-pyran-4-yl)amino)-5-((2-methyl-7-phenyl-2H-indazol-5-yl)amino)-1,2,4-triazine-6-carboxamide]
- IC50 [1, 3]: 49 nM
- IC50 [2]: 0.38 nM

Structure (SMILES): Cc1cccc(Nc2cc(NCCN(C)C)ccc2C(N)=O)c1 [C, reference compound]
- IC50 [1, 4]: > 10000 nM
- IC50 [2]: 620 nM

Structure (SMILES): NC(=O)c1nnc(N[C@@H]2CCCC[C@@H]2N)nc1Nc1cccc2c1ccn2C1COC1 [Example 34, 3-((1R,2S)-2-aminocyclohexylamino)-5-(1-(oxetan-3-yl)-H-indol-4-ylamino)-1,2,4-triazine-6-carboxamide]
- IC50 [1, 3]: 65 nM
- IC50 [2]: 0.42 nM

Structure (SMILES): Cc1cc(Nc2nc(N[C@@H]3CCCC[C@@H]3N)nnc2C(N)=O)cc2nn(C(F)F)cc12 [Example 265, 3-(((1R,2S)-2-aminocyclohexyl)amino)-5-((2-(difluoromethyl)-4-methyl-2H-indazol-6-yl)amino)-1,2,4-triazine-6-carboxamide]
- IC50 [1, 3]: 125 nM
- IC50 [2]: 0.5 nM

Structure (SMILES): [2H]C([2H])([2H])C([2H])([2H])n1ncc2cc(Nc3nc(N[C@H]4CCCNC4)nnc3C(N)=O)ccc21 [Example 7, (S)-5-(1-(ethyl-d5)-1H-indazol-5-ylamino)-3-(piperidin-3-ylamino)-1,2,4-triazine-6-carboxamide diformate]
- IC50 ([1]; Homo sapiens, SU-DHL-6, 72 h): 174 nM
- IC50 [2]: 0.92 nM

Structure (SMILES): NC(=O)c1ccc(NC2CCCCC2N)cc1Nc1cccc2c1OCO2 (stereo not drawn) [B, reference compound]
- IC50 [1, 4]: 1900 nM
- IC50 [2]: 6.8 nM

Structure (SMILES): CCn1ncc2ccc(Nc3nc(N[C@@H]4CCCC[C@@H]4N)nnc3C(N)=O)cc21 [Example 154]
- IC50 [1, 3]: 138 nM
- IC50 [2]: 0.43 nM

Structure (SMILES): NC(=O)c1nnc(N[C@@H]2CCCC[C@@H]2N)nc1Nc1cc(-c2ccccc2)cs1 [Example 164]
- IC50 [1, 3]: 92 nM
- IC50 [2]: 0.29 nM
